Patent US9492466B2, “Beta-hydroxy-gamma-aminophosphonates for treating immune disorders” (Nucitec S.A. de C.V., priority 2012, dated 2016)

Key:
THP-1 cells [1] = experiment: Cell proliferation of THP-1 cells co-inhibited with hydrocortisone; assay type: cell-based, human; conditions: hydrocortisone 10 μg/mL, all used concentrations, 48 hours of treatment
Method: The ability of (2R,3S)-(2-hydroxy-5-methyl-3-trimethylammonium-hexyl)-phosphonic acid dimethyl ester; iodide to modify the cell proliferation of THP-1 cells was investigated. THP-1 cells were cultured in RPMI 1640 medium supplemented with 10% FBS and 100 U/ml penicillin-streptomycin. Cell cultures were incubated at 37° C. and 5% CO2. THP-1 cells were plated at 1×10^6 cells/ml in 24-well microtiter plates. Cells were co-inhibited with hydrocortisone (10 μg/mL) to inhibit cell proliferation.

thymus and spleen = experiment: Histological studies of thymus and spleen tissue; assay type: in vivo, obese (fa/fa) Zucker rats; conditions: obese Zucker rats, hematoxylin and eosin
Method: Samples of tissue from thymus (FIG. 6) and spleen (FIG. 7) were taken and histological sections were made and stained with hematoxylin and eosin from obese (fa/fa) Zucker rats and lean rats. The histological sections from thymus show a decrease in thymic medulla in samples from obese animals. When animals were treated with Compound 2 for five weeks, a recovery of the cellularity of medulla in this lymphoid organ was observed.

[2] = Level of glucose, triglycerides, cholesterol and liver glycogen; assay type: in vivo, obese (fa/fa) Zucker rats (ZDF); conditions: 100 mg/kg, eight weeks
Method: To determine whether the morphological and functional changes (see EXAMPLES 6 and 7) were associated with an improvement in liver metabolism, the levels of glucose, triglycerides and cholesterol were quantified. Obese (fa/fa) Zucker rats (ZDF) and lean rats, as control, were used. Obese (fa/fa) Zucker rats (ZDF) were treated with a daily dose of Compound 2 (100 mg/kg) 5 days a week during eight weeks. Plasma from blood samples was collected, and the triglycerides, cholesterol and glucose levels were quantified by colorimetric methods. Also, liver samples were taken, and liver glycogen was measured.

blood T-lymphocytes = experiment: T cell levels in blood of obese rats, 5 weeks of treatment; assay type: in vivo, obese (fa/fa) Zucker rats; conditions: obese Zucker rats, 100 mg/kg
Method: Compound 2 (100 mg/kg) was administered to obese (fa/fa) Zucker rats five days a week for 5 weeks. […] The level of T helper (CD4+) increased; cytotoxic T-lymphocyte(CD8+) levels remained unchanged.
The effect of Compound 2 on T lymphocyte populations in normal and unhealthy rats was investigated. Obese (fa/fa) Zucker rats (ZDF) and lean Wistar rats, as control, were used. Zucker rats present a mutation in the leptin receptor, which is the molecular basis of their characteristic phenotype (loss of satiety). Obese Zucker rats are considered representative of obesity-associated type diabetes in humans. They are hyperlipidaemic, grossly obese, hyperinsulinaemic, insulin resistant, and not prone to ketosis. Metabolic changes related to increased insulin resistance, including oxidative stress, have been implicated in obesity-related pathophysiology. However, most attention in recent years has been devoted to the concept that obesity elicits a chronic low-grade systemic inflammatory state.
In this study, animals were treated with 100 mg/kg of Compound 2 five days a week for 5 weeks. The circulating lymphocyte populations were identified and quantified by flow cytometry using mice monoclonal antibodies against rat CD3+ conjugated with different fluorochromes and analyzed on a FACS Calibur flow cytometer BD using the Cell Quest software.

THP-1 cells [3] = experiment: Cell proliferation of THP-1 cells co-stimulated with lipopolysaccharide; assay type: cell-based, human
Method: The ability of (2R,3S)-(2-hydroxy-5-methyl-3-trimethylammonium-hexyl)-phosphonic acid dimethyl ester iodide to modify the cell proliferation of monocytic cells (THP-1 cells) co-stimulated with lipopolysaccharide was investigated. THP-1 cells, a human monocytic cell line, were used and cultured in RPMI 1640 medium supplemented with 10% FBS and 100 U/ml penicillin-streptomycin. Cell cultures were incubated at 37° C. and 5% CO2. THP-1 cells were plated at 1×10^6 cells/ml in 24-well microtiter plates. Cells were co-stimulated with lipopolysaccharide (LPS, 10 μg/mL) in order to induce cell proliferation. Cells were treated with the compound at different concentrations, and a reduction in the number of cells at 0.01, 10 and 100 μM at 24 hours of treatment were observed (FIG. 12).

Nocardia brasiliensis = experiment: Reduction in mycetoma development induced in mice; assay type: in vivo; conditions: Balb-c mice, dexamethasone, 5 mg/kg and 50 mg/kg, after 15 days of treatment
Method: The ability of (2R,3S)-(2-hydroxy-5-methyl-3-trimethylammonium-hexyl)-phosphonic acid dimethyl ester; iodide at 5 mg/kg and 50 mg/kg to reduce the mycetoma development induced in mice was investigated. For this, male Balb-c mice weighing 25 grams were used. Mice were treated with dexamethasone (125 mg/kg) and mycetoma was induced with the inoculation Nocardia brasiliensis (15×10^8 cells, se) (FIG. 16).
Mycetoma is a chronic infectious disease that remains localized, involves cutaneous and subcutaneous tissue, fascia, and bone, and is noncontagious. The disease is characterized by tumefaction, draining sinuses, and the presence of sclerotia. The 31 fungi known to cause mycetoma are associated with soil and woody plants. A chronic, tumor-like deforming disease develops during subsequent years following the introduction of the etiologic agent via localized trauma.

[4] = tested on: T lymphocyte subpopulations; experiment: T lymphocyte subpopulations in bloodstream, thymus and spleen, 8 weeks of treatment; assay type: in vivo, obese (fa/fa) Zucker rats (ZDF); conditions: 100 mg/kg
Excerpt: To determine whether the increase in lymphocytes is due to an increased production of lymphocytes or their mobility, the levels of T lymphocyte subpopulations in bloodstream, thymus, and spleen from obese (fa/fa) Zucker rats (ZDF) and lean rats (control), after 8 weeks of treatment with Compound 2 was investigated.
Obese rats were used in this study. Lymphocyte populations from bloodstream, thymus, and spleen were identified and quantified by flow cytometry using mice monoclonal antibodies against rat CD3+ conjugated with different fluorochromes and analyzed on a FACS Calibur flow cytometer BD using the Cell Quest software.

THP-1 cells [5] = experiment: Phagocytic activity of THP-1 cells (yeast phagocytosis, flow cytometry); assay type: cell-based, human
Method: The ability of (2R,3S)-(2-hydroxy-5-methyl-3-trimethylammonium-hexyl)-phosphonic acid dimethyl ester; iodide to induce the phagocytic activity of monocytic cells (THP-1 cells) was investigated. For this, THP-1 cells were differentiated using phorbol myristate 13-acetate (PMA, 100 ng/mL) in order to induce the phagocytic activity of yeast. When the cells were treated with PMA (100 ng/mL) for 48 hours cell differentiation of monocytic cells to macrophages was observed (FIG. 14). Yeast were added to cultured media and the phagocytosis was measured by flow cytometry (FIG. 15). (2R,3S)-(2-hydroxy-5-methyl-3-trimethylammonium-hexyl)-phosphonic acid dimethyl ester; iodide induced the phagocytosis of yeast by macrophages in a similar way that those macrophages treated with PMA alone.

ALT, AST and AP in serum = experiment: Level of liver enzymes (colorimetric); assay type: in vivo, obese (fa/fa) Zucker rats (ZDF); conditions: obese Zucker rats, 100 mg/kg, p<0.01
Method: To determine whether the morphological changes in liver tissue (see EXAMPLE 6) were associated with an improvement in liver function, the levels of liver enzymes were investigated. Obese (fa/fa) Zucker rats (ZDF) and lean rats, as control, were used. Obese (fa/fa) Zucker rats (ZDF) were treated with a daily dose of Compound 2 (100 mg/kg) 5 days a week during eight weeks.
Plasma from blood samples was collected and liver enzymes were quantified by colorimetric methods. Liver enzymes, or liver (hepatic) function tests, are used to determine if the liver is functioning normally, or if it has an injury or disease. Alanine aminotransferase (ALT) is typically used to detect a liver injury or an active or chronic liver problem. Aspartate aminotransferase (AST) is used to detect liver injuries and long-term liver disease. Highly elevated levels of AST may indicate active hepatitis from any cause. Alkaline phosphatase (ALP) is an enzyme found in the bile ducts of the liver. Damage or obstruction of the bile ducts may result in elevated levels of ALP.

[6] = tested on: liver injury present in obese (fa/fa) Zucker rats (ZDF); experiment: Histological studies of liver tissue; assay type: in vivo; conditions: 100 mg/kg
Method: The ability of Compound 2 (100 mg/kg) to modify the liver injury present in obese (fa/fa) Zucker rats (ZDF) was investigated. Obese (fa/fa) Zucker rats (ZDF) and lean rats, as control, were used. Obese (fa/fa) Zucker rats (ZDF) were treated with a daily dose of 100 mg/kg of the Compound 2, 5 days a week during eight weeks.
Samples of tissue from liver were taken, and histological sections were made and stained with hematoxylin and eosin from obese (fa/fa) Zucker rats and lean rats.

CD4+ counts = conditions: HIV-infected patients, in combination with standard antiretroviral treatment, vs antiretroviral agents with no supplementation; cited from earlier work
blood lymphocytes = experiment: T cell levels in normal rats (flow cytometry of circulating lymphocytes); assay type: in vivo; conditions: Wistar rats, 22.4 mg/kg
Method: The ability of (2R,3S)-(2-hydroxy-5-methyl-3-trimethylammonium-hexyl)-phosphonic acid; iodide (referred to herein as “Compound 1”) to modify the level of blood lymphocytes in rats was investigated. (2R,3S)-(2-hydroxy-5-methyl-3-trimethylammonium-hexyl)-phosphonic acid; iodide (22.4 mg/kg) was administered to Wistar rats 5 days a week for two weeks. The circulating lymphocyte populations were identified and quantified by flow cytometry mice monoclonal antibodies against rat CD3+ conjugated with different fluorochromes and analyzed on a FACS Calibur flow cytometer BD using the Cell Quest software. […] It is noted that administration of Compound 1 increases the levels of T helper (CD4+) and cytotoxic (CD8+) lymphocytes. In addition, an increase in regulatory T cells (CD4+CD25+) (p<0.01) was observed.

COP(=O)(C[C@H](O)[C@H](CC(C)C)[N+](C)(C)C)OC [Compound 2, (2R,3S)-(2-hydroxy-5-methyl-3-trimethylammonium-hexyl)-phosphonic acid dimethyl ester; iodide]
cell proliferation (THP-1 cells [1]): induction
spleen morphology (white pulp, lymphoid follicles) (thymus and spleen): recovery
cellularity of medulla in thymus (histology) (thymus and spleen; treated for five weeks): recovery
amount of glycogen in the liver ([2]; Zucker rats): higher
cholesterol compared with control (lean) levels ([2]; obese Zucker rats): reached the control levels
glucose compared with control (lean) levels ([2]; obese Zucker rats): reached the control levels
cholesterol levels ([2]; obese Zucker rats, p<0.01): significant reduction
glucose levels ([2]; obese Zucker rats, p<0.01): significant reduction
triglycerides levels ([2]; obese Zucker rats, p<0.01): significant reduction
cytotoxic T-lymphocyte (CD8+) levels (blood T-lymphocytes; 5 weeks, blood): unchanged
level of T helper (CD4+) (blood T-lymphocytes; 5 weeks, blood): increased
T cell populations (blood T-lymphocytes; 5 weeks, similar to healthy Wistar rats, although in minor intensity): increase
effect of LPS (THP-1 cells [3]; THP-1 cells co-stimulated with LPS 10 μg/mL): inhibit
number of cells (cell proliferation) (THP-1 cells [3]; THP-1 cells, LPS 10 μg/mL, at 0.01, 10 and 100 μM, 24 hours of treatment): reduction
paw thickness (mycetoma) (Nocardia brasiliensis): significant reduction
cytotoxic lymphocytes ([4]; obese rats, blood): significant increase
levels of total blood lymphocytes ([4]; obese rats, blood): increased
subpopulation of T helper cells ([4]; spleen): reduction
subpopulation of cytotoxic lymphocytes ([4]; spleen): reduction
total T-lymphocytes ([4]; spleen): decline
cytotoxic T-lymphocytes ([4]; thymus): increase
double positive CD8+ CD4+ (DP) lymphocytes ([4]; thymus): slight decrease
population of double negative CD4-CD8- (DN) lymphocytes ([4]; thymus): slight increase
population of helper T cells ([4]; thymus): increase
phagocytosis of yeast by macrophages (THP-1 cells [5]; PMA-differentiated THP-1 cells, similar to macrophages treated with PMA alone): induced
level of ALT in serum (ALT, AST and AP in serum; 5 days a week during eight weeks): significant reduction
level of AP in serum (ALT, AST and AP in serum; eight weeks): significant reduction
level of AST in serum (ALT, AST and AP in serum; eight weeks): significant reduction
liver histology ([6]; eight weeks, hematoxylin and eosin): normal liver histology
degree of fat accumulation in the liver ([6]; five days a week for eight weeks): significant reduction

C[N+](C)(C)C[C@H](O)CC(=O)[O-] [L-carnitine]
improvement in CD4+ counts (CD4+ counts): greater improvement

CCCCCCCCCCCCCC(=O)O[C@@H]1[C@@H](C)[C@@]2(O)[C@@H](C=C(CO)C[C@]3(O)C(=O)C(C)=C[C@@H]23)[C@@H]2C(C)(C)[C@]12OC(C)=O [PMA, phorbol myristate 13-acetate, reference compound]
cell differentiation of monocytic cells to macrophages (THP-1 cells [5]; THP-1 cells, 100 ng/mL, 48 hours): observed

(2R,3S)-(2-hydroxy-5-methyl-3-trimethylammonium-hexyl)-phosphonic acid; iodide [Compound 1]
level of total T-lymphocytes (blood lymphocytes; 5 days a week for two weeks, vs control group): increased
levels of T helper (CD4+) lymphocytes (blood lymphocytes; two weeks): increases
levels of cytotoxic (CD8+) lymphocytes (blood lymphocytes; two weeks): increases
regulatory T cells (CD4+CD25+) (blood lymphocytes; two weeks, p<0.01): increase
level of total blood T-lymphocytes (blood T-lymphocytes; five days a week for 5 weeks, vs control group): increased
